Measured values reported in PubChem BioAssay AID1208 (EPA DSSTox, 2008).
Active and inactive are the calls of the source.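 How the source made its calls: active means at least one rat sex group has a carcinogenic potency value and tumor site recorded; inconclusive means only rat studies were judged inadequate by the national testing program; inactive means no potency or tumor site, with negative rat experiments.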

Test system: rat chronic carcinogenicity bioassay, TD50
Test: DSSTox (CPDBAS) Carcinogenic Potency Database Summary Rat Bioassay Results
Settings: for Potency: stronger effect = lower value
Text: The Carcinogenic Potency Database (CPDB) is a unique and widely used international resource of the results of over 6500 chronic, long-term animal cancer tests on over 1500 chemical substances. The CPDB provides easy access to the bioassay literature, with qualitative and quantitative analyses of both positive and negative experiments that have been published over the past 50 years in the general literature and by the National Cancer Institute/National Toxicology Program. The CPDB standardizes the diverse literature of cancer bioassays that vary widely in protocol, histopathological examination and nomenclature, and in the published author's choices of what information to provide in their papers. Results are reported in the CPDB for tests in rats, mice, hamsters, dogs, and nonhuman primates, and are based on the most positive result among all experiments for each sex-species. The DSSTox CPDBAS (all species) file incorporates data from the CPDB Summary Tables for the full list of over 1500 chemical substances tested in at least one species. Summary bioassay results for Rat (TD50, tumor sites, male, female, both sexes) are provided in the CPDB Summary Tables and the DSSTox CPDBAS file for over 1200 chemical substances.
TD50 is a standardized quantitative measure of carcinogenic potency (analogous to an LD50) and is reported in the CPDB Summary Table for each species. Activity Score for actives is computed by mapping of LOG10 (1/TD50_Rat_mmol) activity values spanning range [MIN, MAX] onto Integer 1-100 Activity Score range, where 100 is highest potency and 1 is lowest: Activity Score = 100 * INTEGER[(log10(1/Activity) - MIN)/(MAX - MIN)]. If activity is reported but no TD50_Rat_mmol value is computed, such as for a mixture, the Activity Score is assigned the activity value "50". […] Target sites are reported for each sex-species group with a positive result in the CPDB on the basis of a positive author's opinion for the particular site, using all results from both the general literature and NCI/NTP bioassays. If a chemical has two or more target sites listed, the results may be from different experiments, and a single site may be a target organ in more than one experiment, as well. Blank entry in TargetSites field indicates no results reported.

[1] = TargetSites_Rat_Female: no positive results
[2] = TD50_Rat_Note: no positive results
[3] = TD50_Rat_Note: no positive results, TargetSites_Rat_Female: no positive results
[4] = TD50_Rat_Note: TD50 is harmonic mean of more than one positive test, TargetSites_Rat_Female: liver
[5] = TargetSites_Rat_BothSexes: all tumor bearing animals
[6] = TargetSites_Rat_Female: all tumor bearing animals

COP(=O)(OC)OC=C(Cl)Cl
Potency [1]: 4.16 mg/kg/day

CCC(CC)C(=O)NC(N)=O
outcome [2]: inactive; no positive results

CCOC(=O)CC(SP(=O)(OC)OC)C(=O)OCC (stereo unspecified)
outcome [3]: inactive; no positive results

CCCCC1C(=O)N(c2ccccc2)N(c2ccccc2)C1=O
Potency (TargetSites_Rat_Female: kidney): 1160 mg/kg/day

NCCCCCC(=O)O
outcome [2]: inactive; no positive results

CC(N)Cc1ccccc1 (stereo unspecified)
outcome [3]: inactive; no positive results

ClC1(Cl)C2(Cl)C3(Cl)C4(Cl)C(Cl)(Cl)C5(Cl)C3(Cl)C1(Cl)C5(Cl)C24Cl (stereo unspecified)
Potency (TD50_Rat_Note: TD50 is harmonic mean of more than one positive test, TargetSites_Rat_Female: hematopoietic system, liver): 1.77 mg/kg/day

Nc1ccc([N+](=O)[O-])cc1O
Potency [1]: 111 mg/kg/day

Cn1cc(C(=O)[C@@H]2CCc3nc[nH]c3C2)c2ccccc21
outcome [3]: inactive; no positive results

O=C1CN=C(c2ccccc2)c2cc(Cl)ccc2N1CC1CC1
outcome [3]: inactive; no positive results

CC1=CC(=O)CC(C)(C)C1
Potency [1]: 1210 mg/kg/day

O.O=S(=O)([O-])[O-].[Mn+2]
outcome [3]: inactive; no positive results

CC/C=C(/CC)[N+](=O)[O-]
Potency (TargetSites_Rat_BothSexes: lung): 8.66 mg/kg/day

O=NN1CCCC1
Potency (TD50_Rat_Note: TD50 is harmonic mean of more than one positive test, harmonic mean of TD50 includes a value for upper 99% confidence li, TargetSites_Rat_Female: liver, vascular system): 0.799 mg/kg/day

C#C[C@]1(O)CC[C@H]2[C@@H]3CCc4cc(O)ccc4[C@H]3CC[C@@]21C
Potency (TargetSites_Rat_Female: liver): 0.2 mg/kg/day

C[C@H]1CCCCN1N=O
Potency (TargetSites_Rat_BothSexes: nervous system): 13.2 mg/kg/day

OC[C@H]1O[C@@H]2O[C@H]3[C@H](O)[C@@H](O)[C@@H](O[C@H]4[C@H](O)[C@@H](O)[C@@H](O[C@H]5[C@H](O)[C@@H](O)[C@@H](O[C@H]6[C@H](O)[C@@H](O)[C@@H](O[C@H]7[C@H](O)[C@@H](O)[C@@H](O[C@H]8[C@H](O)[C@@H](O)[C@@H](O[C@H]1[C@H](O)[C@H]2O)O[C@@H]8CO)O[C@@H]7CO)O[C@@H]6CO)O[C@@H]5CO)O[C@@H]4CO)O[C@@H]3CO
outcome [3]: inactive; no positive results

NC(=S)C(N)=S
outcome [3]: inactive

O=C1C2CC=CCC2C(=O)N1SC(Cl)(Cl)Cl (stereo unspecified)
Potency (TD50_Rat_Note: TD50 is harmonic mean of more than one positive test, TargetSites_Rat_Female: uterus): 2080 mg/kg/day

C/C=C1/C[C@@H](C)[C@@](C)(O)C(=O)OC/C2=C/CN(C)CC[C@@H](OC1=O)C2=O
Potency (TD50_Rat_Note: positive test results only by intraperitoneal or intravenous injection): 1.7 mg/kg/day

CN(CCCC(=O)c1cccnc1)N=O
Potency (TD50_Rat_Note: TD50 is harmonic mean of more than one positive test): 0.0999 mg/kg/day

C=CCc1ccc(OC)c(OC)c1
Potency (TD50_Rat_Note: TD50 is harmonic mean of more than one positive test, TargetSites_Rat_Female: liver, stomach): 19.7 mg/kg/day

CN1C(=O)OC(C)(C)C1=O
outcome [2]: inactive; no positive results

C1N2CN3CN1CN(C2)C3
outcome [3]: inactive; no positive results

CCCN(CCC)S(=O)(=O)c1ccc(C(=O)O)cc1
outcome [3]: inactive; no positive results

CCCCN(CCCC)N=O
Potency: 0.691 mg/kg/day

O=CNNc1nc(-c2ccco2)cs1
outcome [3]: inactive

COc1ccc(CN(CCN(C)C)c2ccccn2)cc1
Potency [4]: 280 mg/kg/day

O=NN1CSCSC1
outcome [3]: inactive

Nc1ccc(N(CCO)CCO)cc1
outcome [3]: inactive; no positive results

CCNc1nc(Cl)nc(NC(C)(C)C#N)n1
Potency (TargetSites_Rat_Female: mammary gland): 6.33 mg/kg/day

Cc1ccc([N+](=O)[O-])cc1
Potency (TargetSites_Rat_Female: clitoral gland): 257 mg/kg/day

CCOC(N)=O
Potency [5]: 41.3 mg/kg/day

Cc1cccn2c1nc1ccc(N)nc12
Potency (TD50_Rat_Note: TD50 is harmonic mean of more than one positive test, TargetSites_Rat_Female: clitoral gland, ear Zymbals gland, large intestine, liver, nervous system, small intestine): 4.69 mg/kg/day

Clc1ccc(-c2cccc(Cl)c2Cl)c(Cl)c1
Potency (TD50_Rat_Note: TD50 is harmonic mean of more than one positive test, TD50_Rat_mmol was not calculated for this mixture, but Activiity S, TargetSites_Rat_Female: liver): 11.8 mg/kg/day

CN(C)C(=S)[S][Pb][S]C(=S)N(C)C
outcome [3]: inactive; no positive results

CN1C(=O)CN=C(c2ccccc2)c2cc(Cl)ccc21
outcome [3]: inactive; no positive results

ClCC(Cl)(Cl)Cl
outcome [3]: inactive; no positive results

O=C1Nc2ccc(Cl)cc2C(c2ccccc2)=NC1O (stereo unspecified)
outcome [3]: inactive; no positive results

CCN(Cc1cccc(S(=O)(=O)O)c1)c1ccc(C(=C2C=CC(=[N+](CC)Cc3cccc(S(=O)(=O)O)c3)C=C2)c2ccccc2S(=O)(=O)[O-])cc1
outcome (TD50_Rat_Note: no positive results, TargetSites_Rat_BothSexes: no positive results): inactive

Cc1ccc2c(-c3cccc(O)c3)nc(=O)n(C(C)C)c2c1
outcome [3]: inactive; no positive results

COP(=S)(OC)SCn1nnc2ccccc2c1=O
outcome [3]: inactive; no positive results

CN(N=O)C(N)=O
Potency: 0.0927 mg/kg/day

Cc1cc(N)ccc1N
outcome [3]: inactive; no positive results

CCCCOCCO
outcome [3]: inactive; no positive results

O=C1CCO1
Potency (TD50_Rat_Note: TD50 is harmonic mean of more than one positive test, TargetSites_Rat_Female: stomach): 1.46 mg/kg/day

CN(C)CCC(c1ccc(Cl)cc1)c1ccccn1 (stereo unspecified)
outcome [3]: inactive; no positive results

COC(=O)C1=C(C)NC(C)=C(C(=O)OCC(C)(C)CN(C)Cc2ccccc2)C1c1cc([N+](=O)[O-])ccc1F (stereo unspecified)
outcome [3]: inactive; no positive results

CCCCCN(CCCCC)N=O
Potency [4]: 4.03 mg/kg/day

Cc1ccc(N)c(C)c1
outcome [2]: inactive; no positive results

Cc1ccccc1N=O
Potency: 50.7 mg/kg/day

Nc1c(Br)cc(Br)c2c1C(=O)c1ccccc1C2=O
Potency (TD50_Rat_Note: TD50 is harmonic mean of more than one positive test, TargetSites_Rat_Female: kidney, large intestine, liver, urinary bladder): 46 mg/kg/day

Nc1c(F)c(N)c(F)c(F)c1F
outcome [2]: inactive; no positive results

COC(=O)C(C)(C)Oc1ccc(-c2ccc(Cl)cc2)cc1
Potency (TD50_Rat_Note: TD50 is harmonic mean of more than one positive test, harmonic mean of TD50 includes a value for upper 99% confidence li, TargetSites_Rat_Female: liver): 4.78 mg/kg/day

Nc1ccc(N)cc1
outcome [3]: inactive; no positive results

Brc1c(Br)c(Br)c(Oc2c(Br)c(Br)c(Br)c(Br)c2Br)c(Br)c1Br
Potency [4]: 3340 mg/kg/day
outcome [3]: inactive; no positive results

c1ccc(NNc2ccccc2)cc1
Potency (TD50_Rat_Note: TD50 is harmonic mean of more than one positive test, TargetSites_Rat_Female: liver, mammary gland): 5.59 mg/kg/day

S=C=NCCCc1ccccc1
outcome [2]: inactive; no positive results

CN(CCCO)N=O
Potency (TD50_Rat_Note: TD50 is harmonic mean of more than one positive test, TargetSites_Rat_Female: liver, lung): 1.66 mg/kg/day

CC(=O)Nc1ccc(-c2ccc(F)cc2)cc1
Potency: 1.01 mg/kg/day

OC[P+](CO)(CO)CO
outcome [3]: inactive; no positive results

O=[N+]([O-])c1c(Cl)c(Cl)c(Cl)c(Cl)c1Cl
outcome [3]: inactive; no positive results

O=[N+]([O-])c1ccc(-c2nc(N3CCOCC3)c3ccccc3n2)s1
Potency [6]: 5.03 mg/kg/day

COc1ccc2nc(S(=O)Cc3ncc(C)c(OC)c3C)[nH]c2c1 (stereo unspecified)
Potency (TD50_Rat_Note: TD50 is harmonic mean of more than one positive test, greater than ten-fold variation among TD50 values for positive res, TargetSites_Rat_Female: stomach): 119 mg/kg/day

CC(=O)OC1CC(C)OC(C)O1 (stereo unspecified)
outcome [3]: inactive; no positive results
Potency: 716 mg/kg/day

COC(=O)C1=C(C)NC(C)=C(C(=O)OCCc2ccc(N3CCN(C(c4ccccc4)c4ccccc4)CC3)cc2)C1c1cccc([N+](=O)[O-])c1 (stereo unspecified)
outcome [3]: inactive; no positive results

O=c1[nH]nc(-c2ccc([N+](=O)[O-])o2)o1
Potency [6]: 8.61 mg/kg/day

ClCc1ccccn1
outcome [3]: inactive; no positive results

O=[N+]([O-])c1cc([As](=O)(O)O)ccc1O
outcome [3]: inactive; no positive results

CCN(CC)C(=O)/C(Cl)=C(\C)OP(=O)(OC)OC
outcome (TD50_Rat_Note: only experiment is NCI/NTP bioassay inadequate, TargetSites_Rat_Female: NTP bioassay inadequate): ntp bioassay inadequate

N[C@@H](CCC(=O)O)C(=O)O
outcome [3]: inactive; no positive results

Nc1ccc(Cc2ccc(N)c(Cl)c2)cc1Cl
Potency (TD50_Rat_Note: TD50 is harmonic mean of more than one positive test, TargetSites_Rat_Female: liver, lung, mammary gland): 19.3 mg/kg/day
outcome [2]: inactive; no positive results

S=C([S-])NCCNC(=S)[S-].[Zn+2]
outcome [3]: inactive; no positive results
Potency [5]: 255 mg/kg/day

CC(=O)OC/C=C(\C)CCC=C(C)C
outcome [3]: inactive; no positive results

CCOP(=O)=O.CCOP(=O)=O.CCOP(=O)=O.[Al+3]
Potency [1]: 3660 mg/kg/day

CCCCCl
outcome [3]: inactive; no positive results

OCl
outcome [3]: inactive; no positive results
